The results in this text go back to patent publication US20220226323A1, “ALDOSE REDUCTASE INHIBITORS FOR TREATMENT OF PHOSPHOMANNOMUTASE 2 DEFICIENCY” (Applied Therapeutics, Inc., priority 2019, published 2022).

One data set has as its system PMM2. The data set is described as follows: PMM2 enzyme activity in PMM2-CDG patient-derived fibroblasts. The data set is classed as cell-based, human. The settings on record: 50 nM, 24 hours; four PMM2-CDG patient-derived fibroblast lines; vs DMSO-treated mutant cell line. On the procedure:
Cells were seeded in a 96-well plate, homogenization buffer (20 mM HEPES, 25 mM KCl, 1 mM DTT, 10 μg/ml leupeptin, 10 μg/ml antipain) was added and plates were freeze-thawed at —80° C. twice to lyse cells. Reaction buffer (50 mM HEPES, 5 mM MgCl2, 0.5 mM NADP+, 10 μg/ml yeast glucose-6-phosphate dehydrogenase, 10 μM glucose-1,6-bisphosphate, 10 μg/ml phosphoglucoisomerase, 5.25 μg/ml phosphomannoseisomerase) containing 200 μM mannose-1-phosphate as substrate was then added to the wells of each plate. Plates were incubated at 37° C. for 270 min and absorbance was read at 340 nm at 30, 60, 90, 120, 150, 180, 210, 240 and 270 min by removing the plate from incubation at the respective time points. All incubations were carried out with or without substrate (mannose-1-phosphate) and the difference between the two values was calculated as the enzymatic activity. Enzyme activity was normalized to total lysate protein levels. Enzyme activities of fibroblasts in the absence of an AR inhibitor were determined. […] Following this, enzyme activity was assessed as described above. […] For ease of analysis, the enzyme activity (as represented by NADPH concentration) of each treatment condition was compared with the activity of a baseline, untreated mutant cell line at the last time point.

Data set [1] in a line: CNS penetration (statement).

In the case of `O=C(O)Cc1nn(Cc2nc3cc(C(F)(F)F)ccc3s2)c(=O)c2cscc12` [Compound B], the “PMM2 enzyme activity in patient-derived fibroblast cell lines” value with PMM2 is listed as “increased PMM2 enzyme activity in each of the four patient-derived cell lines tested”. Besides, the CNS penetration result in data set [1] is “CNS penetrant”.
